# Molecular target: T1, rubredoxin (RD), in polyprotein (RD-GB1)n (Pyrococcus furiosus, UniProt P24297)
# T1 construct: gene rub; full-length ferric (FeS4) rubredoxin fused to GB1 fingerprint domain, His-tag purified from E. coli DH5alpha, linked by BM(PEO)3 thiol-maleimide coupling into (RD-GB1)n
# T1 sequence (P24297 2-54): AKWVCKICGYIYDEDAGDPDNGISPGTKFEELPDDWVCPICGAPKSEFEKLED
# Assay: single-molecule AFM force clamp, FeS4 rupture rate against [KSCN]
# Assay type: binding
# Conditions: pH 7.4, 100 mM Tris and NaCl, KSCN 5-800 mM; ferric-thiolate bond rupture rate extrapolated to zero force (Bell-Evans); FeS4 centre exposed by force-induced partial unfolding; not an affinity
compound,measurement,value
N#CS [SCN^−],k (second-order rate constant of ligand substitution),0.36 M⁻¹ s⁻¹

# Source: PMC4491811, “Force-induced chemical reactions on the metal centre in a single metalloprotein molecule” (Nature Communications, 2015)
